Laboratory results from patent US7718639B2, “7-hydroxyepiandrosterone having neuroprotective activity” (Hunter-Fleming Limited, priority 2000, dated 2010).

Tests used:
[1] = tested on: CA1 cell layer of organotypic hippocampal slice cultures; experiment: Hypoxic neuronal damage in organotypic hippocampal slice cultures (PI fluorescence in CA1); assay type: cell-based, Wistar rat; details: for reduction of hypoxic CA1 damage (in words): present pre-
Description: Organotypic hippocampal slice cultures were prepared using the basic method of Pringle et al (1996, 1997) modified as follows:
Wistar rat pups (8-11 days old) were decapitated and the hippocampus rapidly dissected into ice-cold Gey's balanced salt solution supplemented with 4.5 mg/ml glucose. Slices were separated and plated onto Millicell CM culture inserts (4 per well) and maintained at 37° C./5% CO2 for 14 days. Maintenance medium consisted of 25% heat-inactivated horse serum, 25% Hank's balanced salt solution (HBSS) and 50% minimum essential medium with added Earle's salts (MEM) supplemented with 1 mM glutamine and 4.5 mg/ml glucose. Medium was changed every 3-4 days.
Experimental hypoxia was performed as described previously (Pringle et al., 1996; 1997). Briefly, cultures were transferred to serum free medium (SFM—75% MEM, 25% HBSS supplemented with 1 mM glutamine and 4.5 mg/ml glucose) containing 5 μg/ml of the fluorescent exclusion dye propidium iodide (PI). Cultures were allowed to equilibrate in SFM for 60 minutes prior to imaging. PI fluorescence was detected using a Leica inverted microscope fitted with a rhodamine filter set. Any cultures in which PI fluorescence was detected at this stage were excluded from further study. Hypoxia was induced by transferring cultures to SFM (+PI) which had been saturated with 95%N2/5%CO2. Culture plates (without lids) were then sealed into an airtight chamber in which the atmosphere was saturated with 95%N2/5%CO2 by continuously blowing through gas at 10 L/min for ten minutes before being sealed and placed in the incubator for 170 mins (total time of hypoxia was therefore 180 mins). At the end of the hypoxic period cultures were returned to normoxic SFM containing PI and placed back in the incubator for 24 hours.
Neuronal damage was assessed as described previously (Pringle et al., 1996; 1997) using either NIH Image 1.60 running on an Apple IIsi computer or OpenLab 2.1 (Improvision) running on a Macintosh G4/400. Images were captured using a monochrome camera and saved onto optical disk for offline analysis. Light transmission images were captured prior to the addition of drugs, and PI fluorescence images recorded at the end of the 24-hour post-hypoxia recovery period. The area of the CA1 cell layer was determined from the transmission image. The area of PI fluorescence in CA1 was measured using the density slice function within NIH image or Openlab, and neuronal damage expressed as the percentage of the CA1 in which PI fluorescence was detected above background.
Steroid compounds were prepared by making an initial 1 mg/ml solution in ethanol and further diluting down in SFM. Compounds were added to the cultures for 45 minutes prior to hypoxia, during the hypoxic episode and during the post-hypoxic recovery period. Control experiments consisted of cultures treated with vehicle alone.

[2] = tested on: hippocampal CA1 pyramidal cells; experiment: Global cerebral ischemia in rats (4 vessel occlusion), surviving CA1 neurons by Nissl staining; assay type: in vivo, male Wistar rats
Description: Cerebral ischemia was induced by four-vessel-occlusion (4VO) in male Wistar rats (250-280 g). Both vertebral arteries were occluded by electrocauterization in pentobarbital anesthesia (60 mg/kg i.p.). The animals were allowed to recover for 24 hours with free access to water but not food. The next day the carotid arteries were exposed under 2% halothane in 30% oxygen/70% nitrous oxide anesthesia and were occluded for 10 minutes using microvascular claps. Subsequently, both clamps were removed and both arteries were inspected for immediate reperfusion. During the operation and the following 3 hours normothermia of the animals (37.5Γ0.5° C.) was maintained by using a thermostatically controlled heating blanket connected to a rectal thermometer. For control, in sham-operated animals both vertebral arteries were cauterized in pentobarbital anesthesia and both common carotid arteries were exposed but not clamped under 2% halothane in 30% oxygen/70% nitrous oxide anesthesia the following day. The wound was treated with lidocaine gel and then sutured. The animals were kept under a heating lamp at 30° C. environmental temperature until they regained consciousness.
Seven groups of animals were investigated: • 1. (n=8) steroid compound, 7β-OH EPIA (0.1 mg/kg, i.v. via tail vein, three injections: 15 minutes prior to the induction of ischemia, during ischemia and 5 minutes after reperfusion); • 2. (n=8) steroid compound, 7β-OH EPIA (0.3 mg/kg, i. v. three injections as described in 1.); • 3. (n=8) steroid compound, 7β-OH EPIA (1 mg/kg, i. v., three injections as described in 1.); • 4. (n=8) NBQX (disodium salt, because more water soluble) as reference substance and positive control (TOCRIS, Germany, 30 mg/kg, i. p., three injections as described in 1.); • 5. (n=8) received vehicle (0.9% NaCl, containing 100 μl Ethanol) three injections as described in 1.); • 6. (n=8) ischemia alone; • 7. (n=8) sham operated controls.
The substances were dissolved in 100 μl Ethanol and finally diluted with 0.9% NaCl.
After a survival time of 7 days after ischemia, all animals were perfusion fixed transcardially with 4% paraformaldehyde. The brains were then removed carefully and postfixed in the same fixative for 2 hours. After cryoprotection in 30% sucrose, the brains were rapidly frozen in isopentane and stored at −80° C. Twenty-micrometer cryostat sections comprising the hippocampal formation were Nissl stained with toluidine blue or NeuroTrace fluorescence.
The severity of neuronal damage in the hippocampal CA1 region after ischemia was evaluated by the number of surviving neurons using Nissl staining. The mean number of morphologically intact neurons per 400 μm length was calculated in CA1 region for each group. […] The data were statistically analyzed by paired Student's t-test. […]

[3] = Experiment 1, 100 nM, compound present pre-, during and post-hypoxia, control hypoxia 25.5 ± 6.4
[4] = Experiment 1, 100 nM, during and post-hypoxia
[5] = Experiment 2, 1 nM, control hypoxia 31.9 ± 4.7
[6] = Experiment 2, 10 nM, control hypoxia 31.9 ± 4.7
[7] = Experiment 2, 100 nM, control hypoxia 31.9 ± 4.7

| Structure (SMILES) | % Damage in CA1 [1, 3] | reduction of hypoxic CA1 damage (in words) [1, 4] | neuroprotective effect against hypoxic damage (in words) ([1]; Experiment 2, 1 nM) | % Damage in CA1 [1, 5] | neuroprotective effect against hypoxic damage (in words) ([1]; Experiment 2, 10 nM) | % Damage in CA1 [1, 6] | neuroprotective effect against hypoxic damage (in words) ([1]; Experiment 2, 100 nM) | % Damage in CA1 [1, 7] | neuroprotective effect on CA1 pyramidal cells compared to the sham operated group ([2]; 0.1 mg/kg i.v., three injections, 10 min global ischemia, 7 days survival, p=0.01) | neuroprotective effect on CA1 pyramidal cells compared to the sham operated group ([2]; 0.3 mg/kg i.v., three injections, 10 min global ischemia, 7 days survival, p=0.0008) | neuroprotective effect on CA1 pyramidal cells (in words) ([2]; 1.0 mg/kg i.v., three injections, 10 min global ischemia, 7 days survival) | behavioral abnormalities of the animals ([2]; injected i.v. prior, during and after ischemia, all experiments) |
| --- | --- | --- | --- | --- | --- | --- | --- | --- | --- | --- | --- | --- |
| CC12CCC3C(C1CCC2=O)[C@H](O)C[C@H]1C[C@@H](O)CCC31C (stereo partly drawn) [7αOH-EPIA, 7α-Hydroxy-EPIA] | 4.0 ± 2.9 % | significantly reduced | no effect | 28.8 ± 5.8% | not-statistically significant reduction | 21.9 ± 8.1% | significantly protective | 11.8 ± 2.8 % | – | – | – | – |
| CC12CCC3C(C1CCC2=O)[C@@H](O)C[C@H]1C[C@@H](O)CCC31C (stereo partly drawn) [7βOH-EPIA, 7β-hydroxyepiandrosterone] | 9.0 ± 4.7 % | significantly reduced | activity was lost | 20.6 ± 7.2% | significantly neuroprotective | 11.9 ± 4.7 % | significantly neuroprotective | 14.3 ± 5.0 % | 74.8% | 83.9% | only a tendency to neuroprotection, but the effect was not significant | never observed any behavioral abnormalities |
